According to US20130315843A1, “COMPOSITION FOR REDUCTION OF TRPA1 AND TRPV1 SENSATIONS” (priority 2012, published 2013):
“And” between values parts separate entries of the source, which are not always exact repeats. Equal values may be shown once.

How the values were obtained:
human TRPA1 = human TRPA1 (Homo sapiens, UniProt O75762); test: FLIPR intracellular Ca2+ assay, direct (agonist) effect on TRPA1; assay type: cell-based; design: expressed in transfected cells
Procedure: After centrifugation, a pellet of cells was formed in the bottom of the tube separating them from the supernatant solution.
The pelleted cells were re-suspended in 10 ml assay buffer and 90 μl aliquots (˜50,000 cells) per well delivered to a 96-well assay plate containing 10 μl of test compounds (1 mM in assay buffer, final concentration 100 μM) or buffer control and incubated at room temperature for 30 minutes.

human TRPV1 [1] = target: T1, human TRPV1 (Homo sapiens, UniProt Q8NER1); test: FLIPR Ca2+ assay, reduction of hydrogen peroxide activation of TRPV1; assay type: cell-based; design: expressed in transfected cells; conditions: for Ca++ counts: with compound
Procedure: (§1) Cells were detached with addition of 10 ml of PBS (phosphate buffered saline) by hand shaking gently. Cells were transferred to a 50 ml tube and centrifuged at 850 rpm for 3 minutes to remove PBS.
The pelleted cells were re-suspended in 10 ml assay buffer and 90 μl aliquots (˜50,000 cells) per well delivered to a 96-well assay plate containing 10 μl of test compounds (1 mM in assay buffer, […]) or buffer control and incubated at room temperature for 30 minutes.

human TRPV1 [2] = target: T1, human TRPV1; test: FLIPR Ca2+ assay, reduction of capsaicin activation of TRPV1; assay type: cell-based; design: expressed in transfected cells; conditions: for Ca++ counts: with compound
Procedure: as §1
The pelleted cells were re-suspended in 10 ml assay buffer and 90 μl aliquots (˜50,000 cells) per well delivered to a 96-well assay plate containing 10 μl of test compounds ([…]) or buffer control and incubated at room temperature for 30 minutes.

[3] = Headspace GC reduction of 1-propanethiol by protectant (Michael Acceptor) compounds; conditions: for % Thiol Reduction: 0.1% sodium lauryl sulfate, 1% test compound, headspace; for Percent Thiol Reduction vs. Control: 0.1% SLS
Procedure: For EXAMPLES 11 and 12 a 0.1% sodium lauryl sulfate (SLS) aqueous solution was prepared to contain either 1 ppm or 10 ppm of 1-propanethiol. SLS solution was added to the sample and control solutions to assist in solubilization of the more hydrophobic compounds. Control solutions contained surfactant and 1-propanethiol, while sample solutions contained these components plus a protectant compound added at either 0.01% or 0.05%. 100 μL aliquots of control or test solutions were aliquotted into a 22 mL headspace vial, vortexed for 30 seconds, and incubated for 30 minutes at 60 C in an oven. After that period, 1 mL of head space was sampled and injected into an Agilent 7890 gas chromatograph equipped with a sulfur chemiluminescence detector (GC-SCD). Peak areas of the 1-propanethiol control sample (no protectant compound added) were established by triplicate injection of the control sample. The area of the propanethiol peak produced from samples containing selected protectant molecules were then determined and ratioed to the 1-propanethiol control peak area, subtracted from 1, and multiplied by 100 to calculate percent reduction of the thiol peak, thus indicating the effectiveness of each protectant at reducing the level of thiol.
The samples in TABLE 17 were prepared by combining 1 ppm 1-propanethiol with 0.1% sodium lauryl sulfate with 1% of the test compounds. The volatile sulfurs were measured with headspace GC/MS using a SPEME column to capture the volatile sulfur.
The samples in TABLE 18 were prepared by combining either 1 or 10 ppm 1-propanethiol with 0.1% sodium lauryl sulfate with either 0.01% or 0.05% of the test compounds.

[4] = Trained sensory panel, burn sensation after brushing with menthol dentifrice; assay type: in vivo, human; design: key: 0 = no burning to 60 = highest intensity; 7.5 difference = significant; conditions: scale 0-60
Procedure: (§2) For EXAMPLES 6 and 7 sensory evaluation studies of menthol and hydrogen peroxide activity were conducted using a methodology patterned after the techniques described in M. C. Meilgaard, et al., Sensory Evaluation Techniques, 4th Ed. (2007). In one study, a panel of 8-15 trained sensory experts evaluated the menthol or peroxide sensations experienced after brushing with a dentifrice containing the menthol or hydrogen peroxide and the respective TRPA1 or TRPV1 antagonists. Panelists brushed teeth with 1.5 grams of a dentifrice (containing coolant) or control (no coolant) and then expectorated. After brush expectoration, panelists evaluated the burn intensity, assigning a number between 0 (no burning) to 60 ([…]). After rinse expectoration, panelists evaluated burning intensity according to the same 0 to 60 scale. Evaluations were conducted at 5, 15, 30, 45, 60 minute, etc. time points. At each evaluation, panelists were instructed to breathe in through pursed lips and evaluate overall burning sensation. In this test, a numerical score difference from the control of 7.5 indicates user significant differences or definite reduction in burning at the specified time point. Measures between 4.0 to 7.5 indicate a noticeable trend in the specified parameter, which is not statistically significant, but noticeable.
For EXAMPLE 6 (TABLES 8 and 9), a panel of 14 trained sensory experts evaluated the sensory profile experienced after brushing with the dentifrice sample formulations shown in TABLES 6 and 7 containing high levels of menthol followed by rinsing with water. Panelists brushed teeth with 1.5 grams of a test dentifrice (containing high menthol levels) or control (no menthol) for 36 seconds and then expectorated. The dentifrice sample formulations (control and high L-Menthol) are shown below in TABLE 6 (with peppermint flavor) and TABLE 7 (with spearmint flavor). The dentifrices were made using conventional methods and are shown below with component amounts in weight % of total composition. […]
For TABLE 10 all the Samples had the same formulation as Sample E from TABLE 6, except for the Control which lacked menthol. After brushing or mouthwash expectoration, panelists evaluated the burning sensation, assigning a number between 0 (no sensation) to 60 (highest intensity sensation). Evaluations were conducted at 5, 10, 20 and 30 minute time points, following expectoration. At each evaluation, panelists were instructed to breathe in through pursed lips and evaluate overall sensation. In this test, a numerical score of 7.5 indicates a significant user noticeable sensation. Differences less than 7.5, but greater than 5.0 indicate the trending of the data on a specific attribute.

[5] = Trained sensory panel, burning and numbing sensation after hydrogen peroxide mouthwash; assay type: in vivo, human; design: key to Burning Sensation: 0 = no sensation, 60 = highest intensity sensation; conditions: scale 0-60
Procedure: as §2
For EXAMPLE 7, a panel of 10 trained sensory experts evaluated the sensory profile experienced after rinsing with 30 grams of a test mouthwash (containing hydrogen peroxide and TRPA1 or TRPV1 antagonist) or control (containing hydrogen peroxide and no TRPA1 or TRPV1 antagonist) for 30 seconds and then expectorated. After expectoration, panelists evaluated the sensorial profile (cooling, warming, burning, numbing, and astringency), assigning a number between 0 (no sensation) to 60 (highest intensity sensation). Evaluations were conducted at 2.5, 5, 10, 20, and 30 minute time points, following expectoration at each evaluation, panelists were instructed to breathe in through pursed lips and evaluate overall burning or numbing sensation. The hydrogen peroxide containing mouthwash formulations are shown below in TABLE 11. The mouthwash samples tested comprised a control having the components listed in TABLE 11 by weight % of the composition or the control formulation plus TRPA1 or TRPV1 antagonist, as shown in TABLE 12. The mouthwashes were made using conventional methods and are shown below with amounts in weight % of total composition.

[6] = antagonist 100 μM against 500 μM hydrogen peroxide
[7] = 5 Min After Rinse, dentifrice Sample E (1% menthol) with antagonist levels as E42
[8] = 10 Min After Rinse, dentifrice Sample E (1% menthol) with antagonist levels as E42
[9] = 20 Min After Rinse, dentifrice Sample E (1% menthol) with antagonist levels as E42
[10] = 30 Min After Rinse, dentifrice Sample E (1% menthol) with antagonist levels as E42
[11] = After Expectoration, dentifrice Sample E (1% added menthol) with Apritone 200 ppm, Dihydrojasmone 6 ppm, Isobornyl Isobutyrate 100 ppm, α-heptyl-γ-valerolactone 100 ppm as named
[12] = After Rinse, dentifrice Sample E (1% menthol) with antagonist levels as E42
[13] = 2 Min 30 SEC After Expectoration, H2O2 mouthwash, antagonist levels as E48
[14] = 5 Min After Expectoration, H2O2 mouthwash, antagonist levels as E48
[15] = 10 Min After Expectoration, H2O2 mouthwash, antagonist levels as E48
[16] = 20 Min After Expectoration, H2O2 mouthwash, antagonist levels as E48
[17] = 30 Min After Expectoration, H2O2 mouthwash, antagonist levels as E48
[18] = After Expectoration, H2O2 mouthwash, antagonist levels as E48
[19] = Initial in Mouth, hydrogen peroxide mouthwash (TABLE 11) with Apritone 200 ppm, Isobornyl Isobutyrate 100 ppm, Dihydrojasmone 6 ppm as named, 10 panelists
[20] = 1 ppm 1-propanethiol, 0.01% test compound
[21] = 1 ppm 1-propanethiol, 0.05% test compound
[22] = 10 ppm 1-propanethiol, 0.01% test compound
[23] = 10 ppm 1-propanethiol, 0.05% test compound

Chain of human TRPA1 (O75762 whole entry): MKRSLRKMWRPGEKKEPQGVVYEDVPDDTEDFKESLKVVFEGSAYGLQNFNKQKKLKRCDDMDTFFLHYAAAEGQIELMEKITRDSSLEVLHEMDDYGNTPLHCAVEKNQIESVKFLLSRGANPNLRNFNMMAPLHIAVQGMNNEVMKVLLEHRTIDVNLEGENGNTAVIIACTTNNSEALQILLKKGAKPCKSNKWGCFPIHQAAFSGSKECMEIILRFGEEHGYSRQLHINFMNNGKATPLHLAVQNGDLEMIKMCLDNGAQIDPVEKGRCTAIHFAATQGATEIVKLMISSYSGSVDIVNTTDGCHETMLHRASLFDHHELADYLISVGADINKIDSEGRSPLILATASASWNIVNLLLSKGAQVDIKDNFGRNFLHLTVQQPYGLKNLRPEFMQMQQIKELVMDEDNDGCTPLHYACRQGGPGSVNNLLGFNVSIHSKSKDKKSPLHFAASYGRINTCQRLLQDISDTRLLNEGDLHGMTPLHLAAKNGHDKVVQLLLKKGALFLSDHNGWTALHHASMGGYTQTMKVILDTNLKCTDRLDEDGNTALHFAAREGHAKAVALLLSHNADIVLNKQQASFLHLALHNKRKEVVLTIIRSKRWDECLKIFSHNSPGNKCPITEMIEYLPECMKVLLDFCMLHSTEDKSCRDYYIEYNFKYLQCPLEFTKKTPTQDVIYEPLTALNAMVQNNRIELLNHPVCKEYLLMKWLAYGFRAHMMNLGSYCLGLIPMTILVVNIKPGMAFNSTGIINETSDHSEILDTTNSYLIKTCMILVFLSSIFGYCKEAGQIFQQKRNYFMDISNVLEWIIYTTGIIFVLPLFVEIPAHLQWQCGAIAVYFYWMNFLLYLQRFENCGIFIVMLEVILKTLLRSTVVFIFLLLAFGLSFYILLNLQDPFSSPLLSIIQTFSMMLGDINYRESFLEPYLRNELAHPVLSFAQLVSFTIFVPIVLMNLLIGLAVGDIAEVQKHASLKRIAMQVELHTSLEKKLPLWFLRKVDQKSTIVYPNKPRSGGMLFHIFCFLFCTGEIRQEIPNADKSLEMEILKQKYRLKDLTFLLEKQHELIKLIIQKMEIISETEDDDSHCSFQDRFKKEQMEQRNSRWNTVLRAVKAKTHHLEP
T1 sequence (Q8NER1 whole entry): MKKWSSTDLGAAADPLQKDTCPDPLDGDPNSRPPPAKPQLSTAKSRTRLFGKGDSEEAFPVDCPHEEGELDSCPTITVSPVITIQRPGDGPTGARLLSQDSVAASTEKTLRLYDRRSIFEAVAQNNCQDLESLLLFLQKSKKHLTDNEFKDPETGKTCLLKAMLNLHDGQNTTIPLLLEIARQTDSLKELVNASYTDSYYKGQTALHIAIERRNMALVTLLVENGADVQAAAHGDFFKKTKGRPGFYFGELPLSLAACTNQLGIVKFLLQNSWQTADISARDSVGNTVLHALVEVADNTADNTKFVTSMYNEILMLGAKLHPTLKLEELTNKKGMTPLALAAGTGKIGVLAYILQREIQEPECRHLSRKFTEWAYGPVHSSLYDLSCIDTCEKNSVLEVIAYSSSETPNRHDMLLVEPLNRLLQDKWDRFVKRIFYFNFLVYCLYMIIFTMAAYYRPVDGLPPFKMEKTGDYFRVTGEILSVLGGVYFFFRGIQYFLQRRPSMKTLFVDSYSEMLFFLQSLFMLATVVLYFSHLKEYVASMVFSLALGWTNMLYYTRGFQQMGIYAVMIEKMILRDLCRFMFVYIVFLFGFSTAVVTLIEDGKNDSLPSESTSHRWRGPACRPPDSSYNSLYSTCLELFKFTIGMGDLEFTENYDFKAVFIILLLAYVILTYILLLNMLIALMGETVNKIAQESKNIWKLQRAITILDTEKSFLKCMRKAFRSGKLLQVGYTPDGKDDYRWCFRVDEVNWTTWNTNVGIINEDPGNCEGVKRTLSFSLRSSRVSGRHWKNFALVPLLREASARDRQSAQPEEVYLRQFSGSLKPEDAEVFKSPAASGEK

SMILES | Ca++ counts (human TRPV1 [1]; Dose 1000, 500 uM H2O2) | Ca++ counts (human TRPV1 [2]; Dose 1000, 350 nM Capsaicin) | % Thiol Reduction ([3]; 1 ppm 1-propanethiol) | Burning Sensation Rating [4, 7] | Burning Sensation Rating [4, 8] | Burning Sensation Rating [4, 9] | Burning Sensation Rating [4, 10] | Burning Sensation Rating [4, 11] | Burning Sensation Rating [4, 12] | Burning Sensation [5, 13] | Numbing Sensation [5, 13] | Burning Sensation [5, 14] | Numbing Sensation [5, 14] | Burning Sensation [5, 15] | Numbing Sensation [5, 15] | Burning Sensation [5, 16] | Numbing Sensation [5, 16] | Burning Sensation [5, 17] | Numbing Sensation [5, 17] | Burning Sensation [5, 18] | other results
CC(=O)OC1CC2CCC1(C)C2(C)C (single isomer, unassigned; (-)) [(−)-Bornyl Acetate] | 877 | 13976 |  |  |  |  |  |  |  |  |  |  |  |  |  |  |  |  |  |  | effect on TRPA1 receptor, in words (agonist / enhancer) (human TRPA1): TRPA1 agonists; reduction of hydrogen peroxide activation of TRPV1, in words (human TRPV1 [1]): reduce hydrogen peroxide activation of TRPV1; inhibition at 100 µM (human TRPV1 [1]; [6]): 53%
C=CCN=C=S [AITC, allyl isothiocyanate] |  |  |  |  |  |  |  |  |  |  |  |  |  |  |  |  |  |  |  |  | Average Ca++ Counts (human TRPA1; AITC 50 μM alone, each Set 1-4): 8322.5 Counts and 14138.2 Counts and 15213.0 Counts and 11209.0 Counts; Ca2+ Count, TRPA1 (human TRPA1; control agonist AITC 50 μM): 12219 Count
CC(=O)c1ccc[nH]1 [Acetylpyrrole] |  |  | 37.3% |  |  |  |  |  |  |  |  |  |  |  |  |  |  |  |  |  | 
CC(C)=CCC/C(C)=C/CC1CCCC1=O (stereo not shown) [Apritone] | 66 | 13526 |  | 13.3 | 5.3 | 0.0 | 0.0 | 27.4 | 24.0 | 20.8 | 12.4 | 16.0 | 10.1 | 8.6 | 6.0 | 3.3 | 4.2 | 1.3 | 0.8 | 21.9 | Numbing Sensation [5, 18]: 11.6; Burning Sensation [5, 19]: 12.6; % inhibition of TRPV1 activation by 500 uM H2O2 (human TRPV1 [1]; Dose 1000): 96%; % Reduction of Hydrogen Peroxide TRPV1 Activation (human TRPV1 [1]; [6]): 96%; % inhibition of TRPV1 activation by 350 nM Capsaicin (human TRPV1 [2]; Dose 1000): 10%
O=C/C=C/c1ccccc1 [Cinnamic aldehyde] |  |  |  |  |  |  |  |  |  |  |  |  |  |  |  |  |  |  |  |  | Percent Thiol Reduction vs. Control [3, 20]: 36.8%; Percent Thiol Reduction vs. Control [3, 21]: 52.4%; Percent Thiol Reduction vs. Control [3, 22]: −10.0%; Percent Thiol Reduction vs. Control [3, 23]: −5.7%
CCCCCC1=C(C)CCC1=O [Dihydrojasmone] |  |  | significantly or completely reduced sulfur production | 11.3 | 2.5 | 0.0 | 0.0 | 24.1 | 21.3 | 13.1 | 6.9 | 8.9 | 6.3 | 2.8 | 0.8 | 0.8 | 0.0 | 0.6 | 0.0 | 16.9 | Percent Thiol Reduction vs. Control [3, 20]: 79.0%; Percent Thiol Reduction vs. Control [3, 21]: 92.1%; thiol reduction, comparison in words ([3]; 1 ppm 1-propanethiol, compound 0.01% and 0.05%): better reduction in thiol than delta damascone; Percent Thiol Reduction vs. Control [3, 22]: 41.3%; Percent Thiol Reduction vs. Control [3, 23]: 66.7%; thiol reduction, comparison in words ([3]; 10 ppm 1-propanethiol, compound 0.05%): close to delta damascone's thiol reduction; Numbing Sensation [5, 18]: 6.9; Burning Sensation [5, 19]: 12.5; % inhibition of TRPV1 activation by 500 uM H2O2 (human TRPV1 [1]; Dose 4000): 98%; % Reduction of Hydrogen Peroxide TRPV1 Activation (human TRPV1 [1]; antagonist 400 μM against 500 μM hydrogen peroxide): 98%; Ca++ counts (human TRPV1 [1]; Dose 4000, 500 uM H2O2): 38; % inhibition of TRPV1 activation by 350 nM Capsaicin (human TRPV1 [2]; Dose 4000): 4%; Ca++ counts (human TRPV1 [2]; Dose 4000, 350 nM Capsaicin): 11397
